Tests used:
[1] = tested on: adjuvant arthritis in Lewis rats; experiment: Effect on adjuvant arthritis in Lewis rats (Cellular immunostimulation); format: in vivo; settings: 100 mg/Kg orally once a day, 21 days after sensitization; for Tumor stimulating ratio: control = 1.00; for Edema volume: hind paw
Method: Effect on adjuvant arthritis in Lewis rats
(Cellular immunostimulation)
10 Female Lewis rats, 9 weeks old, weighing 180-190 g were used per each group. Rats of each group were administered subcutaneously into the tail with a suspension of 0.6 mg of heated killed mycobaterium butyricum in liquid parafin. Each of the compounds I, suspended in a 5% gum arabic solution, was administered orally once a day to rats of different groups in an amounts of 100 mg/Kg after sensitization. As a comparative drug was used D-penicillamine in the form of an aqueous solution, which was administered orally to rats of different groups in a manner similar to the compound I.
In intervals were measured the edema volume of the hind paw of rats in the drug-treated groups and the control (the drug-untreated groups) for evaluating the tumor stimulating activity of the drug.

[2] = tested on: delayed-type footpad reaction; experiment: Effect on delayed-type footpad reaction (Cellular immunomodulating effect); format: in vivo, Balb/c mice; settings: 2 hours after sensitization
Method: Effect on delayed-type footpad reaction
(Cellular immunomodulating effect)
8 Female Balb/c mice, 8-12 weeks oil, weighing 20-24 g were used per each group. Mice of each group were administered subcutaneously into the right footpad with 1×10^8 sheep red blood cells as antigen to be sensitized.
Each of the compounds I, suspended in a 0.5% gum arabic saline solution, was administered intraperitoneally to mice of different groups in different amounts 2 hours after the sensitization.
Four days after the sensitization, mice of each group were administered subcutaneously into the left footpad with 1×10^8 sheep red blood cells, and the increase of thickness of swelling footpad was measured for evaluating the suppression to the delayed-type footpad reaction according to the method of Lagrange et al [Journal of Experimental Medicine, vol. 139, page 528,(1974)].

[3] = tested on: adjuvant arthritis in Sprague-Dawley rats; experiment: Effect on adjuvant arthritis in Sprague-Dawley rats (chronic rheumatoid arthritis model); format: in vivo; settings: 21 days after sensitization; for Edema volume: hind paw; for Paw edema suppression rate: vs control
Method: Effect on adjuvant arthritis is Sprague-Dawley rats
(chronic rheumatoid arthritis model)
10 Female Sprague-Dawley rats, 8 weeks old, weighting 160-190 g were used per each group. Rats of each group were administered subcutaneously into the tail with a suspension of 0.6 mg of heated killed mycobaterium butyricum in liquid parafin. Each of the compounds I, suspended in a 5% gum arabic solution, was administered orally once a day to rats of different groups in different amounts after sensitization.
At intervals were measured the edema volume of the hind paw of rats in the drug-treated groups and the control (drug-untreated groups) for evaluating tumor suppression activity of the compounds I.

spleen lymphocytes [4] = experiment: Stimulating effect of lymphocytes transformation (3H-thymidine uptake, mitogenation); format: cell-based, BDF1 mice; settings: Mus musculus, Lymphocyte, B medium (with lipopolysaccharide 0.2 μg/ml); 0.3 μg/ml
Method: Stimulating effect of lymphocytes transformation
(Immunomodulative stimulating effect)
Mediums of RPMI-1640 (produced by GIBCO Co.) containing the compound I only (A medium), and containing a mitogen (lipopolysaccharide 0.2 μg/ml) and the compound I (B medium) were prepared.
2×10^5 of spleen lymphocytes of female BDF1 mice, 8-12 weeks old, weighing 20-22 g were cultured on each of the mediums at 37° C. for 48 hours under a 5% carbon dioxide in air. 0.25 μCi of ^3 H-thymidine was added to each of the mediums, and cultivation was further carried out for 22 hours. After completion of the cultivation, the lymphocytes were collected and their radio activity was measured to calculate the ^3 H-thymidine uptake into the lymphocytes for evaluating mitogenation.
The results were expressed as percent to ^3 H-thymidine uptake into lymphocytes in the control medium (not containing the compound I) and shown in Table 4.

spleen lymphocytes [5] = experiment: as above; format: cell-based, BDF1 mice; settings: Mus musculus, Lymphocyte; for activity at 0.3 µg/mL: 0.3 μg/ml; for activity at 3 µg/mL: 3 μg/ml; for activity at 30 µg/mL: 30 μg/ml; for activity at 1 µg/mL: 1 μg/ml; for activity at 10 µg/mL: 10 μg/ml
Acute toxicity = settings: rat, in vivo; oral, male Wister rats, observed for 7 days
Method: 7 male, 7 weeks old, Wister rats weighing 149-160 g were used per each for test. Rats were administered orally with a suspension of the compound I of Example 1 in a 5% gum arabic solution and observed for 7 days after administration, and the LD50 value was calculated.

[6] = B medium (with lipopolysaccharide 0.2 μg/ml)

CC(=O)SCC(CC(=O)c1ccc(Cl)cc1)C(=O)O (centres unmarked) [Example 3]
Tumor stimulating ratio [1]: 1.18
Edema volume [1]: 3.22 ± 0.09 mL

CC(=O)SCC(CC(=O)c1ccc(Br)cc1)C(=O)O (centres unmarked) [Example 4, 2-acetylthiomethyl-3-(4-bromobenzoyl)propionic acid]
Increase of thickness of swelling footpad ([2]; 10 mg/kg intraperitoneally): 115.6 ± 4.8 × 10^-2 mm
Suppression rate of delayed-type footpad reaction ([2]; 10 mg/kg intraperitoneally): 8.5
Increase of thickness of swelling footpad ([2]; 100 mg/kg intraperitoneally): 89.4 ± 5.5 × 10^-2 mm
Suppression rate of delayed-type footpad reaction ([2]; 100 mg/kg intraperitoneally): 29.3
Tumor stimulating ratio [1]: 1.20
Edema volume [1]: 3.27 ± 0.28 mL
Edema volume ([3]; 30 mg/kg orally once a day): 0.64 ± 0.29 mL
Paw edema suppression rate ([3]; 30 mg/kg orally once a day): 65.8%
Edema volume ([3]; 100 mg/kg orally once a day): 0.36 ± 0.14 mL
Paw edema suppression rate ([3]; 100 mg/kg orally once a day): 80.7%
Edema volume ([3]; 300 mg/kg orally once a day): 0.12 ± 0.09 mL
Paw edema suppression rate ([3]; 300 mg/kg orally once a day): 93.6%
activity at 0.3 µg/mL (spleen lymphocytes [4]): 115%
activity at 0.3 µg/mL (spleen lymphocytes [5]; A medium (compound only)): 83%
activity at 3 µg/mL (spleen lymphocytes [5]; A medium (compound only)): 97%
activity at 30 µg/mL (spleen lymphocytes [5]; A medium (compound only)): 117%
activity at 3 µg/mL (spleen lymphocytes [5]; [6]): 107%
activity at 30 µg/mL (spleen lymphocytes [5]; [6]): 131%

CCOC(=O)C(CSC(C)=O)CC(=O)c1ccccc1 (centres unmarked) [Example 16, ethyl 2-acethylthiomethyl-3-benzoylpropionate]
Tumor stimulating ratio [1]: 1.17
Edema volume [1]: 3.18 ± 0.17 mL

O=C(CC(CSC(=O)c1ccccc1)C(=O)O)c1ccccc1 (centres unmarked) [Example 13, 3-benzoyl-2-benzoylthiomethylpropionic acid]
Tumor stimulating ratio [1]: 1.33
Edema volume [1]: 3.63 ± 0.11 mL

COc1ccc(C(=O)CC(CSC(C)=O)C(=O)O)cc1 (centres unmarked) [Example 7]
Tumor stimulating ratio [1]: 1.25
Edema volume [1]: 3.41 ± 0.19 mL

CC(=O)SCC(CC(=O)c1ccc(F)cc1)C(=O)O (centres unmarked) [Example 2]
Tumor stimulating ratio [1]: 1.27
Edema volume [1]: 3.46 ± 0.47 mL

CC(=O)SCC(CC(=O)c1ccccc1)C(=O)O (centres unmarked) [Example 1, 2-acethylthiomethyl-3-benzoylpropionic acid]
Increase of thickness of swelling footpad ([2]; 10 mg/kg intraperitoneally): 102.5 ± 10.8 × 10^-2 mm
Suppression rate of delayed-type footpad reaction ([2]; 10 mg/kg intraperitoneally): 37.7
Increase of thickness of swelling footpad ([2]; 100 mg/kg intraperitoneally): 80.6 ± 8.0 × 10^-2 mm
Suppression rate of delayed-type footpad reaction ([2]; 100 mg/kg intraperitoneally): 51.0
Edema volume ([3]; 30 mg/kg orally once a day): 0.58 ± 0.18 mL
Paw edema suppression rate ([3]; 30 mg/kg orally once a day): 69.0%
activity at 0.3 µg/mL (spleen lymphocytes [4]): 134%
LD50 at 168 h (Acute toxicity): > 1200 mg/kg
activity at 0.3 µg/mL (spleen lymphocytes [5]; A medium (compound only)): 120%
activity at 1 µg/mL (spleen lymphocytes [5]; A medium (compound only)): 114%
activity at 3 µg/mL (spleen lymphocytes [5]; A medium (compound only)): 129%
activity at 10 µg/mL (spleen lymphocytes [5]; A medium (compound only)): 128%
activity at 30 µg/mL (spleen lymphocytes [5]; A medium (compound only)): 149%
activity at 1 µg/mL (spleen lymphocytes [5]; [6]): 146%
activity at 3 µg/mL (spleen lymphocytes [5]; [6]): 177%
activity at 10 µg/mL (spleen lymphocytes [5]; [6]): 217%
activity at 30 µg/mL (spleen lymphocytes [5]; [6]): 241%

CC(C)(S)[C@@H](N)C(=O)O [D-penicillamine, reference compound]
Tumor stimulating ratio [1]: 1.38
Edema volume [1]: 3.76 ± 0.11 mL

— patent US4600540A, “Benzoylpropionic acid derivatives” (Taisho Pharmaceutical Co., Ltd., priority 1984, dated 1986)
